Data from PubChem BioAssay (NCI).
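Cells were grown in 96-well plates and exposed to each compound for 48 hours at five concentrations; endpoints were interpolated linearly between bracketing concentrations, or set to the highest concentration if not reached. TGI: concentration producing complete growth inhibition.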

Assays:
Test in all cases: NCI tumour cell line growth inhibition, 48 h
ACHN renal = tested on: ACHN renal
COLO 205 colon = tested on: COLO 205 colon
HCT-116 colon = tested on: HCT-116 colon
HOP-62 NSCLC = tested on: HOP-62 NSCLC
LOX IMVI melanoma = tested on: LOX IMVI melanoma
M14 melanoma = tested on: M14 melanoma
MDA-MB-435 = tested on: MDA-MB-435
NCI-H226 lung = tested on: NCI-H226 lung
NCI-H522 lung = tested on: NCI-H522 lung
OVCAR-4 ovarian = tested on: OVCAR-4 ovarian
OVCAR-8 ovarian = tested on: OVCAR-8 ovarian
SF-539 CNS = tested on: SF-539 CNS
SK-OV-3 ovarian = tested on: SK-OV-3 ovarian
SN12C renal = tested on: SN12C renal
SW-620 colon = tested on: SW-620 colon
TK-10 renal = tested on: TK-10 renal
BT-549 breast = tested on: BT-549 breast
UACC-62 melanoma = tested on: UACC-62 melanoma

Compound	TGI (ACHN renal) [µM]	TGI (COLO 205 colon) [µM]	TGI (HCT-116 colon) [µM]	TGI (HOP-62 NSCLC) [µM]	TGI (LOX IMVI melanoma) [µM]	TGI (M14 melanoma) [µM]	TGI (MDA-MB-435) [µM]	TGI (NCI-H226 lung) [µM]	TGI (NCI-H522 lung) [µM]	TGI (OVCAR-4 ovarian) [µM]	TGI (OVCAR-8 ovarian) [µM]	TGI (SF-539 CNS) [µM]	TGI (SK-OV-3 ovarian) [µM]	TGI (SN12C renal) [µM]	TGI (SW-620 colon) [µM]	TGI (TK-10 renal) [µM]	TGI (BT-549 breast) [µM]	TGI (UACC-62 melanoma) [µM]
O=S(=O)(N=[Se](=O)(c1ccccc1)c1ccccc1)c1ccccc1	> 100	> 100	> 100	> 100	> 100	> 100	> 100	> 100	> 100	> 100	> 100	> 100	> 100	> 100	> 100	> 100		
Cc1cccc2c(N)c3cccc(C(=O)NCCNCCN)c3nc12	> 100	> 33.4	> 42.6	> 46.3	39.9	> 100	> 78.8		1.36	19.1	17.8	22.4	> 100		> 100	95.4	33.3	39.8
Cc1cc(N(CCC#N)CCC#N)ccc1/C(Sc1ccccc1)=C(\NC(=O)/C=C/c1ccccc1)C(=O)Sc1ccccc1	18.7	7.71	9.79	8.53	2.52	6.3		10.7	1.82	18.6	18.6	3.44	19.8	7.29	15.3	25.2		12.3
Cc1cc(N(C)c2ccccc2)nc(N(C)c2ccccc2)n1	95.7	49.1	37.6	72.8	27.9	> 100	> 100	96	> 100	> 100	> 100	66.5	> 100	> 100	> 100	> 100		> 100
Cc1c(N)c(C#N)c2n(C)c3ncccc3n2c1=O	> 100	> 100	> 100	> 100	> 100	> 100		> 100	> 100	> 100	> 100	> 100	> 100	> 100	> 100	> 100		> 100
O=C1NC(=S)NC(=O)C1=Cc1ccc([N+](=O)[O-])o1	34.6	38.2	34	> 100	38.7	29.5		> 100	35.1	31.1	66.9	61.1	> 100	29.8	41.6	> 100		39.1
CC(=O)c1ccc(NC(=O)C(=O)CC(=O)c2sc(-n3nc(-c4ccccc4)cc3-c3ccccc3)nc2C)cc1	> 100	> 100	> 100	> 100	> 100	> 100		> 100	> 100	> 100	> 100	> 100	> 100	> 100	> 100	> 100		> 100
COC(=O)CSc1cc(Cl)c(C)cc1S(=O)(=O)Nc1n[nH]c(N)n1	> 10	> 10	> 10	> 10	> 10	> 10		> 10	> 10	> 10	> 10	> 10	> 10	> 10	> 10	> 10	> 10	
Cc1ccc(S(=O)(=O)NC(=O)NC(CCCCN)C(=O)O)cc1 (stereo unspecified)	> 100	> 100	> 100	> 100	> 100	> 100			> 100	> 100	> 100	> 100	> 100	> 100	> 100	> 100	> 100	> 100
CCN(CC)CC(C(C)=O)C(c1ccccc1)c1c(O)c2ccccc2oc1=O (stereo unspecified)	> 100	> 100	> 100	> 100	> 100	> 100		> 100	> 100	> 100	> 100	> 100	> 100	> 100	> 100	> 100		> 100
Cc1cc(C(O)CCCc2ccccc2)cc(C)c1O (stereo unspecified)	92.3	> 100		> 100	> 100	> 100		> 100	> 100		> 100	> 100	> 100	> 100	> 100	> 100		> 100
[N-]=[N+]=NC1(Cc2ccccc2)C(=O)Nc2ccccc2C1=O (stereo unspecified)	> 100	> 100	> 100	> 100	> 100	> 100			> 100	> 100	> 100	> 100	> 100	> 100	> 100	> 100		> 100
C#CC(O)/C=C/C(O)CCCC(O)CC#CC(O)C#CCCCCC(O)/C=C/CCCCCC(=O)CCCCCCCCCCCCCC(O)C(O)C#CC(=O)O (stereo unspecified)	> 25	> 25	> 25	> 25	9.88	> 25	> 25	> 25	9.83	> 25	> 25		> 25	> 25		> 25		> 25
O=C(Oc1ccc(C(c2c(O)c3ccccc3oc2=O)c2c(O)c3ccccc3oc2=O)cc1)c1ccc(C(=O)c2ccccc2)cc1	40.3	> 100	> 100	69.9	52.1		42.3	25.9	30.6	92.1	33.8	36.5	33.4	> 100	> 100	37.8		41
COc1cc2c(cc1OC)C1CN3CCCC3C(O)C1c1cc(OC)c(OC)cc1-2 (stereo unspecified)	> 100	> 100	> 100	> 100	> 100	> 100	> 100		> 100	> 100	> 100		> 100	> 100	> 100	> 100	> 100	> 100
OC(Cc1cnnc2ccccc12)C(Cl)(Cl)Cl (stereo unspecified)	> 10	> 10	> 10	> 10	> 10	> 10	> 10	> 10	> 10	> 10	> 10	> 10	> 10	> 10	> 10	> 10		> 10
O=C(O)CCC1C(=O)C2CCN1CC2 (stereo unspecified)	> 100	> 100	> 100	> 100	> 100	> 100	> 100	> 100	> 100	> 100	> 100	> 100	> 100	> 100	> 100	> 100		> 100
CSc1ccccc1NC1=NCCO1	> 100	> 100	> 100	> 100	> 100	> 100	> 100	> 100	> 100	> 100	> 100	> 100		> 100	> 100	> 100		> 100
CCOC(=O)/C1=C(\C)N(Cc2ccccc2)C(=O)c2ccccc2C(=O)c2c(OC(C)=O)ccc(OC(C)=O)c21	> 100	> 100		> 100	> 100		> 100		> 100	> 100	> 100	> 100	> 100	> 100	> 100	> 100		> 100
O=c1nc(N2CCCCC2)sc2[nH]c3ccccc3c12	> 100	> 100		> 100	> 100	> 100	> 100		> 100	> 100	> 100	> 100	> 100	> 100	> 100	> 100	> 100	> 100
S=c1[nH]nc(COc2ccc(Cl)cc2)n1-c1ccccc1	> 100	> 100	> 100	> 100	> 100	> 100	> 100	> 100	23.3	> 100	> 100	> 100	> 100	> 100	> 100	> 100		> 100
CC1CCC2C(C)C(OC(=O)CCC(=O)O)OC3OC4(C)CCC1C32OO4 (stereo unspecified)	18.3	6.71	16.3	> 100	2.92	> 100	13.6			27.7	> 100	29.1	> 100	> 100	> 100	14.7	> 100	> 100
C=C1C(=O)O[C@H]2C(=O)[C@H](C)CCC/C(C)=C/CC[C@@]3(C)O[C@@H]3C[C@@H]12	2.63	3.54	2.26	24.3	3.03	3.28	5.82	33.3	4.06		3.59	6.63	30.3	18.3	3.54	1.65		16.8
NN/C(=N\S(=O)(=O)c1cc(S(=O)(=O)c2ccccc2)cs1)Nc1ccc(Cl)cc1	> 100	43.4	74.6	> 100	54.9	48.1		> 100	41.3	66.5	> 100	> 100	> 100	> 100	> 100	81.7	> 100	43.2
CN(C)C12C=CC=CC3=C(c4ccccc4)C(c4ccccc4)=C(c4ccccc4)C31c1ccccc1C2 (stereo unspecified)	> 100	> 100	> 100	> 100		> 100	> 100		> 100	> 100	> 100	> 100	> 100	> 100	> 100	> 100		
C#CCC(O)c1ccc(OC)c(OCc2ccccc2)c1 (stereo unspecified)	> 100	> 100	> 100	> 100	> 100	> 100	> 100	> 100	> 100	> 100	> 100	> 100	> 100	> 100		> 100		> 100
O=S(=O)(Cc1ccccc1)c1nnc(S(=O)(=O)c2ccc(Cl)cc2)s1	36.4	36.6	36	47.3		33.7	90.6		30.8	> 100	42.8	63.3	47.8	46.7	64.1	41.9	41.6	58.7
COC(=O)c1ccccc1/C=C1\Cc2ccc3c(c2C1=O)CCC3	> 100	> 100	> 100	> 100	> 100		> 100	> 100	> 100	> 100	> 100	> 100	> 100	> 100	> 100	> 100		> 100
COC1(OC)CCCCCCCCC(OC)(OC)CCCCCCCC1	> 100	> 100	> 100	> 100	> 100	> 100	> 100	> 100	> 100		> 100	> 100	> 100	> 100	> 100	> 100		> 100
